Data reported in PMC10935503 (Acta Pharmaceutica Sinica. B, 2023).

Legend:
Type in all cases: cell-based
HIV-1 WT strain (IIIB) = test: Anti-HIV-1 activity in MT-4 cells, MTT method, WT strain IIIB; conditions: for EC50: Human immunodeficiency virus 1, IIIB, MT4, read-out: EC50 IIIB
[1] = tested on: HIV-1 K103N + Y181C (RES056); test: microbe, parasite or virus in culture; conditions: for EC50: Human immunodeficiency virus 1, MT4, read-out: EC50 RES056; for RF RES056: resistance fold, EC50 (mutant strain)/EC50 (WT strain); for SI RES056: selectivity index, ratio of CC50/EC50
[2] = Cytotoxicity in mock-infected MT-4 cells, MTT method; conditions: human
HIV-1 L100I = test: microbe, parasite or virus in culture; conditions: for EC50: Human immunodeficiency virus 1, MT4, read-out: EC50 L100I; for RF L100I: resistance fold, EC50 (mutant strain)/EC50 (WT strain); for SI L100I: selectivity index, ratio of CC50/EC50
HIV-1 K103N = test: microbe, parasite or virus in culture; conditions: for EC50: Human immunodeficiency virus 1, MT4, read-out: EC50 K103N; for RF K103N: resistance fold, EC50 (mutant strain)/EC50 (WT strain); for SI K103N: selectivity index, ratio of CC50/EC50
HIV-1 Y181C = test: microbe, parasite or virus in culture; conditions: for EC50: Human immunodeficiency virus 1, MT4, read-out: EC50 Y181C; for RF Y181C: resistance fold, EC50 (mutant strain)/EC50 (WT strain); for SI Y181C: selectivity index, ratio of CC50/EC50
HIV-1 Y188L = test: microbe, parasite or virus in culture; conditions: for EC50: Human immunodeficiency virus 1, MT4, read-out: EC50 Y188L; for RF Y188L: resistance fold, EC50 (mutant strain)/EC50 (WT strain); for SI Y188L: selectivity index, ratio of CC50/EC50
HIV-1 E138K = test: microbe, parasite or virus in culture; conditions: for EC50: Human immunodeficiency virus 1, MT4, read-out: EC50 E138K; for RF E138K: resistance fold, EC50 (mutant strain)/EC50 (WT strain); for SI E138K: selectivity index, ratio of CC50/EC50
HIV-1 F227L + V106A = test: microbe, parasite or virus in culture; conditions: for EC50: Human immunodeficiency virus 1, MT4, read-out: EC50 F227L + V106A; for RF F227L + V106A: resistance fold, EC50 (mutant strain)/EC50 (WT strain); for SI F227L + V106A: selectivity index, ratio of CC50/EC50

SMILES: Cc1cc(C#N)cc(C)c1Oc1nc(NC2CCN(Cc3ccc(C#N)cc3)CC2)nc2c1SCCC2 [23a, 4-((2-((1-(4-Cyanobenzyl)piperidin-4-yl)amino)-7,8-dihydro-6H-thiopyrano[3,2-d]pyrimidin-4-yl)oxy)-3,5-dimethylbenzonitrile]
- EC50 (HIV-1 WT strain (IIIB)): 4.44 ± 1.39 nM
- EC50 [1]: 263 ± 97.1 nM
- CC50 at 5 days [2]: 3760 ± 320 nM

SMILES: Cc1cc(C#N)cc(C)c1Oc1nc(Nc2ccc(C#N)cc2)nc2c1SCCC2 [compound 15a, 4-((2-((4-Cyanophenyl)amino)-7,8-dihydro-6H-thiopyrano[3,2-d]pyrimidin-4-yl)oxy)-3,5-dimethylbenzonitrile]
- EC50 (HIV-1 WT strain (IIIB)): 3.38 ± 3.17 nM
- EC50 [1]: 85.3 ± 54.3 nM
- RF RES056 [1]: 25.2
- SI RES056 [1]: 53
- EC50 (HIV-1 L100I): 16.7 ± 4.51 nM
- RF L100I (HIV-1 L100I): 4.9
- SI L100I (HIV-1 L100I): 271
- EC50 (HIV-1 K103N): 6.41 ± 0.99 nM
- RF K103N (HIV-1 K103N): 1.9
- SI K103N (HIV-1 K103N): 707
- EC50 (HIV-1 Y181C): 42.3 ± 4.45 nM
- RF Y181C (HIV-1 Y181C): 12.5
- SI Y181C (HIV-1 Y181C): 107
- EC50 (HIV-1 Y188L): 20.7 ± 1.88 nM
- RF Y188L (HIV-1 Y188L): 6.1
- SI Y188L (HIV-1 Y188L): 219
- EC50 (HIV-1 E138K): 17.4 ± 2.24 nM
- RF E138K (HIV-1 E138K): 5.1
- SI E138K (HIV-1 E138K): 260
- EC50 (HIV-1 F227L + V106A): 40.9 nM
- RF F227L + V106A (HIV-1 F227L + V106A): 12.1
- SI F227L + V106A (HIV-1 F227L + V106A): 111
- CC50 at 5 days [2]: 4530 ± 720 nM

SMILES: Cc1cc(C#N)cc(C)c1Oc1nc(NC2CCN(Cc3cccc(C#N)c3)CC2)nc2c1SCCC2 [compound 23b, 4-((2-((1-(3-Cyanobenzyl)piperidin-4-yl)amino)-7,8-dihydro-6H-thiopyrano[3,2-d]pyrimidin-4-yl)oxy)-3,5-dimethylbenzonitrile]
- EC50 (HIV-1 WT strain (IIIB)): 6 ± 1.03 nM
- EC50 [1]: 764 ± 86.1 nM
- CC50 at 5 days [2]: 3780 ± 630 nM

SMILES: Cc1cc(C#N)cc(C)c1Oc1nc(NC2CCN(c3cccc(C(N)=O)c3)CC2)nc2c1SCCC2 [27b, 3-(4-((4-(4-Cyano-2,6-dimethylphenoxy)-7,8-dihydro-6H-thiopyrano[3,2-d]pyrimidin-2-yl)amino)piperidin-1-yl)benzamide]
- EC50 (HIV-1 WT strain (IIIB)): 3.76 ± 2.29 nM
- EC50 [1]: 24.5 ± 8.11 nM
- RF RES056 [1]: 6.5
- SI RES056 [1]: 244
- EC50 (HIV-1 L100I): 13.3 ± 6.79 nM
- RF L100I (HIV-1 L100I): 3.5
- SI L100I (HIV-1 L100I): 450
- EC50 (HIV-1 K103N): 5.46 nM
- RF K103N (HIV-1 K103N): 1.5
- SI K103N (HIV-1 K103N): 1097
- EC50 (HIV-1 Y181C): 7.87 ± 1.84 nM
- RF Y181C (HIV-1 Y181C): 2.1
- SI Y181C (HIV-1 Y181C): 761
- EC50 (HIV-1 Y188L): 7.14 ± 1.5 nM
- RF Y188L (HIV-1 Y188L): 1.9
- SI Y188L (HIV-1 Y188L): 839
- EC50 (HIV-1 E138K): 17.1 ± 4.42 nM
- RF E138K (HIV-1 E138K): 4.5
- SI E138K (HIV-1 E138K): 350
- EC50 (HIV-1 F227L + V106A): 111 ± 11.4 nM
- RF F227L + V106A (HIV-1 F227L + V106A): 29.5
- SI F227L + V106A (HIV-1 F227L + V106A): 54
- CC50 at 5 days [2]: 5990 ± 2950 nM

SMILES: Cc1cc(/C=C/C#N)cc(C)c1Oc1nc(NCCn2ccc(=O)[nH]c2=O)nc2c1SCCC2 [20b, (E)-3-(4-((2-((2-(2,4-Dioxo-3,4-dihydropyrimidin-1(2H)-yl)ethyl)amino)-7,8-dihydro-6H-thiopyrano[3,2-d]pyrimidin-4-yl)oxy)-3,5-dimethylphenyl)acrylonitrile]
- EC50 (HIV-1 WT strain (IIIB)): 20 ± 19.8 nM
- EC50 [1]: 22700 nM
- CC50 at 5 days [2]: 142000 ± 31100 nM

SMILES: CCOC(=O)c1ccc(CN2CCC(Nc3nc4c(c(Oc5c(C)cc(C#N)cc5C)n3)SCCC4)CC2)cc1 [23e, Ethyl 4-((4-((4-(4-cyano-2,6-dimethylphenoxy)-7,8-dihydro-6H-thiopyrano[3,2-d]pyrimidin-2-yl)amino)piperidin-1-yl)methyl)benzoate]
- EC50 (HIV-1 WT strain (IIIB)): 14.8 ± 13.5 nM
- EC50 [1]: 4830 ± 517 nM
- CC50 at 5 days [2]: 65300 ± 39800 nM

SMILES: Cc1cc(C)c(Oc2nc(NCCn3ccc(=O)[nH]c3=O)nc3c2SCCC3)c(C)c1 [20c, 1-(2-((4-(Mesityloxy)-7,8-dihydro-6H-thiopyrano[3,2-d]pyrimidin-2-yl)amino)ethyl)pyrimidine-2,4(1H,3H)-dione]
- EC50 (HIV-1 WT strain (IIIB)): 523 ± 466 nM
- EC50 [1]: > 152000 nM
- CC50 at 5 days [2]: 152000 ± 28300 nM

SMILES: Cc1cc(C#N)cc(C)c1Oc1nc(NCCn2ccc(=O)[nH]c2=O)nc2c1SCCC2 [20a, 4-((2-((2-(2,4-Dioxo-3,4-dihydropyrimidin-1(2H)-yl)ethyl)amino)-7,8-dihydro-6H-thiopyrano[3,2-d]pyrimidin-4-yl)oxy)-3,5-dimethylbenzonitrile]
- EC50 (HIV-1 WT strain (IIIB)): 233 ± 158 nM
- EC50 [1]: > 248000 nM
- CC50 at 5 days [2]: > 284000 nM

SMILES: Cc1cc(C)c(Oc2nc(NC3CCN(Cc4ccc(S(N)(=O)=O)cc4)CC3)nc3c2SCCC3)c(C)c1 [23i, 4-((4-((4-(Mesityloxy)-7,8-dihydro-6H-thiopyrano[3,2-d]pyrimidin-2-yl)amino)piperidin-1-yl)methyl)benzenesulfonamide]
- EC50 (HIV-1 WT strain (IIIB)): 5.43 ± 4.4 nM
- EC50 [1]: 442 ± 272 nM
- RF RES056 [1]: 81.4
- SI RES056 [1]: ≥ 511
- EC50 (HIV-1 L100I): 39.2 ± 7.66 nM
- RF L100I (HIV-1 L100I): 7.2
- SI L100I (HIV-1 L100I): ≥ 5765
- EC50 (HIV-1 K103N): 6.56 ± 1.07 nM
- RF K103N (HIV-1 K103N): 1.2
- SI K103N (HIV-1 K103N): ≥ 34,451
- EC50 (HIV-1 Y181C): 35.7 ± 5.75 nM
- RF Y181C (HIV-1 Y181C): 6.6
- SI Y181C (HIV-1 Y181C): ≥ 6331
- EC50 (HIV-1 Y188L): 43 ± 0.26 nM
- RF Y188L (HIV-1 Y188L): 7.9
- SI Y188L (HIV-1 Y188L): ≥ 5256
- EC50 (HIV-1 E138K): 37.6 ± 7.41 nM
- RF E138K (HIV-1 E138K): 6.9
- SI E138K (HIV-1 E138K): ≥ 6011
- EC50 (HIV-1 F227L + V106A): 64.7 ± 13.3 nM
- RF F227L + V106A (HIV-1 F227L + V106A): 11.9
- SI F227L + V106A (HIV-1 F227L + V106A): ≥ 3493
- CC50 at 5 days [2]: ≥ 226000 nM

SMILES: Cc1cc(C#N)cc(C)c1Oc1nc(NC2CCN(Cc3cccc(S(N)(=O)=O)c3)CC2)nc2c1SCCC2 [23d, 3-((4-((4-(4-Cyano-2,6-dimethylphenoxy)-7,8-dihydro-6H-thiopyrano[3,2-d]pyrimidin-2-yl)amino)piperidin-1-yl)methyl)benzenesulfonamide]
- EC50 (HIV-1 WT strain (IIIB)): 4.65 ± 0.65 nM
- EC50 [1]: 790 ± 134 nM
- CC50 at 5 days [2]: 5610 ± 3420 nM

SMILES: Cc1cc(C#N)cc(C)c1Oc1nc(N2CCN(Cc3ccc(S(N)(=O)=O)cc3)CC2)nc2c1SCCC2 [19a, 4-((4-(4-(4-Cyano-2,6-dimethylphenoxy)-7,8-dihydro-6H-thiopyrano[3,2-d]pyrimidin-2-yl)piperazin-1-yl)methyl)benzenesulfonamide]
- EC50 (HIV-1 WT strain (IIIB)): > 3080 nM
- EC50 IIIB (HIV-1 WT strain (IIIB); MT-4 cells, MTT method, HIV-1 IIIB (WT)): lost potency
- CC50 at 5 days [2]: 19300 ± 3040 nM

SMILES: Cc1cc(C#N)cc(C)c1Oc1nc(NC2CCN(c3cccc(C#N)c3)CC2)nc2c1SCCC2 [compound 27a, 4-((2-((1-(3-Cyanophenyl)piperidin-4-yl)amino)-7,8-dihydro-6H-thiopyrano[3,2-d]pyrimidin-4-yl)oxy)-3,5-dimethylbenzonitrile]
- EC50 (HIV-1 WT strain (IIIB)): 10.2 ± 7.57 nM
- EC50 [1]: 836 ± 290 nM
- CC50 at 5 days [2]: 8390 ± 5220 nM

SMILES: Cc1cc(C#N)cc(C)c1Oc1nc(NCCN2CCOCC2)nc2c1SCCC2 [compound 20d, 3,5-Dimethyl-4-((2-((2-morpholinoethyl)amino)-7,8-dihydro-6H-thiopyrano[3,2-d]pyrimidin-4-yl)oxy)benzonitrile]
- EC50 (HIV-1 WT strain (IIIB)): 5690 ± 4760 nM
- CC50 at 5 days [2]: 20500 ± 11300 nM

SMILES: Cc1cc(C#N)cc(C)c1Oc1nc(Nc2ccc(C#N)cc2)nc2c1[S+]([O-])CCC2 (centres unmarked) [16a, 4-((2-((4-Cyanophenyl)amino)-5-oxido-7,8-dihydro-6H-thiopyrano[3,2-d]pyrimidin-4-yl)oxy)-3,5-dimethylbenzonitrile]
- EC50 (HIV-1 WT strain (IIIB)): 7.99 ± 0.95 nM
- EC50 [1]: 445 ± 95.7 nM
- CC50 at 5 days [2]: ≥ 19700 nM

SMILES: Cc1cc(C#N)cc(C)c1Oc1nc(NC2CCN(Cc3ccccc3C#N)CC2)nc2c1SCCC2 [23c, 4-((2-((1-(2-Cyanobenzyl)piperidin-4-yl)amino)-7,8-dihydro-6H-thiopyrano[3,2-d]pyrimidin-4-yl)oxy)-3,5-dimethylbenzonitrile]
- EC50 (HIV-1 WT strain (IIIB)): 7.1 ± 2.69 nM
- EC50 [1]: 1160 ± 184 nM
- CC50 at 5 days [2]: 3860 ± 1140 nM
